“Also recorded” adds a separate entry of the source.
Tests used:
SOD1 mutant mice [1] = assay: Fluorescein angiography: hypopigmentation and integrity of retinal vessels in SOD1 mutant mice; assay type: in vivo, mouse
Protocol: FIG. 10. TAPP1 improves integrity of retinal vessels in SOD1 mutant mice. A late stage pathology which has been documented in SOD1 mutant mice is choroidal neovascularization (CNV). This pathology is detected by fluorescein angiography. In this technique, a fluorescent dye (fluorescein) is injected into mice and the flow of this dye through vessels of the retina is monitored using a specialized fundus camera. Leakage of the dye outside the retinal vessels indicates compromised vessel integrity and/or CNV. SOD1 mutant mice (aged 6 months) which have been administered the TAPP1 vehicle (treatment protocol is described above) show a prominent area of dye leakage in the area surrounding the optic disc (indicated by arrow).
A Zeiss FF3 fundus camera with a camera back containing a barrier filter for fluorescein angiography (FA) is used. Animals are placed in a restraint built onto the fundus camera and injected with 25% sodium fluorescein (0.01 ml in sterile saline per 5-6 gm of body weight, i.p.). Immediately following the injection, a timer on the camera back is engaged so that elapsed time in seconds is recorded for each picture. The fluorescein images are recorded on Fujichrome Velvia RVP 100 color slide film.

eyeglobes of mice = assay: Ex vivo lens toxicity test, whole eyeglobes cultured overnight; conditions: overnight incubation, media containing 45% β-cyclodextrin, 37° C.
Protocol: FIG. 3. Ex vivo lens toxicity test of TAPP1. The eyeglobes of mice (aged 42 days) were cultured overnight either with control solution (media containing 45% β-cyclodextrin) or TAPP1 (TAPP1 in media containing 45% β-cyclodextrin), at 37° C. overnight, and in 95% air/5% CO2. […] To determine the effects of TAPP1 on isolated lenses, intact lenses were dissected from wild-type mouse eyeglobes, and incubated in DMEM media in a 96 well tissue culture plate. Groups of 3-6 lenses were incubated in 200 μl of media alone (negative control), 4% (2-hydroxypropyl)-β-cyclodextrin (carrier control), 8 mM hydrogen peroxide (H2O2, positive control for lens toxicity), 4 mM TAPP1-O (free radical form), 4 mM TAPP1-R (reduced form), and 4 mM of the two products of TAPP1-R hydrolysis (HP-1 and HP-2), respectively. β-cyclodextrin was included as a carrier control because all of the stock solutions contained 45% (2-hydroxypropyl)-β-cyclodextrin. The samples were incubated in 5% CO2 incubator at 37 C for 2 days.
The TAPP compositions are intended for topical delivery to the anterior portion of the eye. […] Morphological or anatomical effects are determined by comparison of TAPP-treated samples to samples incubated with either the TAPP vehicle or samples which are exposed (10 min treatment) to 100% ethanol (a positive control for lens toxicity). […]

SOD1 mutant mice [2] = assay: Oxidative stress biomarkers (LH, MDA, NT immunoreactivity) in eye tissue of SOD1 mutant mice after eye drop treatment; assay type: in vivo, mouse; conditions: eye drops 40 mM TAPP1 in 45% β-cyclodextrin, one drop per day, 30 treatments over 6 weeks, versus vehicle
Text: FIG. 9. TAPP1 reduces oxidative stress in SOD1 mutant mice. The evolution of oxidative stress and retinal pathology in SOD1 mutant mice, is preceded by the formation of lipid hydroperoxides (LH), and conjugates of malondialdehyde (MDA) and nitrotyrosine (NT). These conjugates are detected in situ using appropriate monoclonal antibodies. To determine the therapeutic efficacy of the TAPP compositions in vivo, we probed fixed sections of eye tissues for these biomarkers following treatment with either TAPP1 (eye drop formulation containing 40 mM TAPP1 in 45% β-cyclodextrin) or the TAPP1 vehicle (β-cyclodextrin alone). Mice (aged 3 months) were treated with one drop per day, 5 treatments per week for 6 weeks, for a total of 30 treatments. In these studies, areas of increased light intensity indicate increased amounts of LH, MDA or NT in the tissue sections.
A mouse which lacks, or is deficient in, the superoxide dismutase 1 (SOD1) enzyme, is used as a model of oxidative stress. Previous investigations have shown that the SOD1-deficient mouse manifests a phenotype which is consistent with age-related macular degeneration (i.e., formation of drusen, thickening of Bruch's membrane and choroidal neovascularization; Imamura, et. al, Proc Natl Acad Sci, 103: 11282-11287, 2006). Following examination of appropriate biomarkers of oxidative stress, the SOD mutant mice are treated with an eye drop formulation containing 40 mM TAPP1 in β-cyclodextrin. The treatment protocol is one drop per day, 5 treatments per week for 6 weeks, for a total of 30 treatments. SOD mutant mice in the control group receive only the TAPP1 vehicle. Following the treatment regime, mice are sacrificed and eyeglobes are enucleated, fixed and prepared for histological examination. The presence of oxidative stress biomarkers (lipid hydroperoxides, LH; malondialdehyde, MDA; and nitrotyrosine, NT) in the tissue sections were evaluated by immunohistochemistry (FIG. 9). […]

## CC1(C)CC(OC(=O)c2cc(-c3ccncc3)n[nH]2)CC(C)(C)N1[O] [TAPP1, 1-oxyl-2,2,6,6-tetramethylpiperidin-4-yl 3-(pyridin-4-yl)-1H-pyrazole-5-carboxylate]
SOD1 mutant mice [1]; SOD1 mutant mice aged 6 months, TAPP1 eye drops versus vehicle
  fluorescein dye leakage around the optic disc (integrity of retinal vessels): no dye leakage; also recorded: reduced dye leakage
SOD1 mutant mice [1]; SOD mutant mice aged 186 days, TAPP1 eye drops
  severity of hypopigmentation: reduces the severity of hypopigmentation
Eyeglobes of mice
  cataract or other overt toxicity in eyeglobes: no cataract or other overt toxicity
SOD1 mutant mice [2]
  lipid hydroperoxide (LH) immunoreactivity in ocular tissue: significantly reduced
  malondialdehyde (MDA) immunoreactivity in ocular tissue: significantly reduced
  nitrotyrosine (NT) immunoreactivity in ocular tissue: significantly reduced
